# Where no end group is shown, it is not given here.
# B1: AnkR_AS (48-residue auto-inhibitory segment of AnkR, residues 1577–1624) (domain or fragment, mouse, UniProt Q02357-6 1577-1624, looked up)
# chain: CADQYWNEVTVIDAIPLAATEHDTMLEMSDMQVWSAGLTPSLVTAEDS
# notes: Free AS in ITC; source: E. coli BL21 (DE3), purified
# How the values were obtained:
# [1] = biological target: T1, AnkR_repeats (Mus musculus, UniProt Q02357); experiment: ITC binding to AnkR_repeats; conditions: VP-ITC, 25°C, 50 mM Tris, 100 mM NaCl, 1 mM EDTA, 1 mM DTT, pH 7.5, one-site binding model, ND = no detectable binding
# T1 construct: thioredoxin-His6 (N); made in house; host or cells: Escherichia coli BL21 (DE3)
# Source text: (§1) The coding sequences of AnkB_repeats (residues 28–873) were PCR amplified using the full-length human 220 kDa AnkB as the template. The coding sequences of the AnkR constructs, including AnkR_repeats (residues 42–853), and the full length AnkR C-terminal domain (residues 1529–1907), were PCR amplified from a mouse muscle cDNA library. The coding sequence of AnkG_repeats (residues 38–855) were PCR amplified using the full-length rat 190 kDa AnkG as the template. The fusion construct of AnkR_AS and AnkB_repeats was made by standard two-step PCR with a coding sequence of thrombin recognition residues ‘GSLVPRGS’ as the linker. This construct was used to crystallize and determine the complex structure. The same strategy was used in making other fusion constructs, including the Nav1.2_ABD-C/AnkB_repeats_R1–9 fusion construct containing residues 1103–1129 from mouse Nav1.2 and human AnkB residues 28–318 followed by a capping sequence corresponding to the αB of R24 (residues 814–822) and the AnkR_AS/AnkG_repeats fusion construct. […]
# (§2) Isothermal titration calorimetry (ITC) measurements were carried out on a VP-ITC MicroCal calorimeter (MicroCal, Northampton, MA) at 25°C. […] The titration data were analyzed using the program Origin 7.0 and fitted by the one-site binding model.
# [2] = biological target: T2, AnkG_repeats (Rattus norvegicus, UniProt O70511); experiment: ITC binding to AnkG_repeats WT; conditions: deduced from site mutants and truncations
# T2 construct: thioredoxin-His6 (N); made in house; host or cells: Escherichia coli BL21 (DE3)
# T2 sequence (O70511 38-855): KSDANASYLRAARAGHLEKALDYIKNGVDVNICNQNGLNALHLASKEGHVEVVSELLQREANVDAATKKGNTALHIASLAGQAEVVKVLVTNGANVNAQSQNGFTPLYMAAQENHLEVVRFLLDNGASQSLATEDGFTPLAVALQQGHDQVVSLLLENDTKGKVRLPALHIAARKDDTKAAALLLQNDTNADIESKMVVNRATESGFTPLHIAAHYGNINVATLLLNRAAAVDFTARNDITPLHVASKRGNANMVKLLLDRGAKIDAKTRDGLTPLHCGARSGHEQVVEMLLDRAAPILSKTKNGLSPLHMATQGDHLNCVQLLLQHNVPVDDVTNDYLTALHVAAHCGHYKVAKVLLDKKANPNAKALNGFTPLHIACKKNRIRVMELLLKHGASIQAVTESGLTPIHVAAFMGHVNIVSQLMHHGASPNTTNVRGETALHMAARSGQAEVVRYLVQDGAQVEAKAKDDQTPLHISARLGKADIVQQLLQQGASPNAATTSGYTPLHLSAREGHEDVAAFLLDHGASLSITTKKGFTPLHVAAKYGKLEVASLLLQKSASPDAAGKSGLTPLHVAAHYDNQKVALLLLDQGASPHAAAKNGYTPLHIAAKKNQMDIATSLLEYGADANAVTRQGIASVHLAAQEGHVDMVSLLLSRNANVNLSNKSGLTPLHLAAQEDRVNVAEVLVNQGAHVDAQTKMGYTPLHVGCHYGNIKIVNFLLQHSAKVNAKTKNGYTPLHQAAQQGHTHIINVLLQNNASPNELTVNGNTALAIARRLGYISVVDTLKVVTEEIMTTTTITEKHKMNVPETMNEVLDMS
# Source text: The coding sequences of AnkB_repeats (residues 28–873) were PCR amplified using the full-length human 220 kDa AnkB as the template. The coding sequences of the AnkR constructs, including AnkR_repeats (residues 42–853), and the full length AnkR C-terminal domain (residues 1529–1907), were PCR amplified from a mouse muscle cDNA library. The coding sequence of AnkG_repeats (residues 38–855) were PCR amplified using the full-length rat 190 kDa AnkG as the template. The fusion construct of AnkR_AS and AnkB_repeats was made by standard two-step PCR with a coding sequence of thrombin recognition residues ‘GSLVPRGS’ as the linker. This construct was used to crystallize and determine the complex structure. The same strategy was used in making other fusion constructs, including the Nav1.2_ABD-C/AnkB_repeats_R1–9 fusion construct containing residues 1103–1129 from mouse Nav1.2 and human AnkB residues 28–318 followed by a capping sequence corresponding to the αB of R24 (residues 814–822) and the AnkR_AS/AnkG_repeats fusion construct. For truncation mutations of ANK repeats constructs, the same capping sequence was added to the appropriate region of the C-terminus of each construct for protein stabilization. Mouse Nav1.2 (NP_001092768.1) and mouse neurofascin (CAD65849.1) were used here for studying their interaction with ankyrins. Peptides for mouse KCNQ2 (NP_034741.2, residues 826–845) and mouse Cav1.3 (NP_083257.2, residues 2134–2166) were commercially synthesized. For simplicity, we used human 220 kDa AnkB for the amino acid numbering throughout the manuscript. For the corresponding point mutations made on AnkG_repeats, each residue number should be increased by 10. All point mutations were created using the Quick Change site-directed mutagenesis kit and confirmed by DNA sequencing. […]
# as §2
# [3] = biological target: T3, AnkG_repeats F131,F164Q (Rattus norvegicus, UniProt O70511, F141Q/F174Q); experiment: ITC binding to AnkG_repeats FF mutant (site 1); conditions: in words
# T3 construct: thioredoxin-His6 (N); made in house; host or cells: Escherichia coli BL21 (DE3)
# Source text: (§3) We next examined the interactions of AnkG_repeats with Nav1.2 and Nfasc using the structure of the ANK repeats/AS complex to design mutations specifically affecting each predicted site. […] To probe the binding sites of Nav1.2 and Nfasc on AnkG, we constructed AnkG_repeat mutants with the corresponding hydrophobic residues in binding site 1 (Phe131 and Phe164 in R4 and R5, termed ‘FF’), site 2 (Ile267 and Leu300 in R8 and R9; ‘IL’), and site 3 (Leu366, Phe399, and Leu432 in R11, R12, and R13; ‘LFL’) substituted with Gln (Figure 3D), and examined their binding to the two targets. […] The mutations in site 3 weakened ANK repeat binding to both targets (Figure 3F, Figure 3—figure supplement 3 and Figure 3—figure supplement 4). […] This conclusion is further supported by the binding of the two targets to various AnkG_repeat truncation mutants (Figure 3F, Figure 3—figure supplement 3 and Figure 3—figure supplement 4).
# (§4) The coding sequences of AnkB_repeats (residues 28–873) were PCR amplified using the full-length human 220 kDa AnkB as the template. […]
# as §2
# [4] = biological target: T4, AnkG_repeats I267,L300Q (Rattus norvegicus, UniProt O70511, I277Q/L310Q); experiment: ITC binding to AnkG_repeats IL mutant (site 2); conditions: in words
# T4 construct: thioredoxin-His6 (N); made in house; host or cells: Escherichia coli BL21 (DE3)
# Source text: as §3, §4, §2
# [5] = biological target: T5, AnkG_repeats L366,F399,L432Q (Rattus norvegicus, UniProt O70511, F409Q/L376Q/L442Q); experiment: ITC binding to AnkG_repeats LFL mutant (site 3); conditions: in words
# T5 construct: thioredoxin-His6 (N); made in house; host or cells: Escherichia coli BL21 (DE3)
# Source text: as §3, §4, §2
# [6] = biological target: T2, AnkG_repeats; experiment: Analytical gel filtration of AS-AnkG_repeats fusion with Nav1.2 or Nfasc ABD; format: binding; conditions: Superose 12 10/300 GL, 50 mM Tris, 100 mM NaCl, 1 mM EDTA, 1 mM DTT, pH 7.5
# Source text: as §1, with “construct. For truncation mutations of ANK repeats constructs, the same capping sequence was added to the appropriate region of the C-terminus of each construct for protein stabilization. Mouse Nav1.2 (NP_001092768.1) and mouse neurofascin (CAD65849.1) were used here for studying their interaction with ankyrins.” for “construct.”
# [7] = biological target: T6, AnkG_repeats (24 ANK repeats of rat 190 kDa ankyrin-G, residues 38–855) (rat, UniProt O70511 38-855); experiment: ITC
# T6 chain: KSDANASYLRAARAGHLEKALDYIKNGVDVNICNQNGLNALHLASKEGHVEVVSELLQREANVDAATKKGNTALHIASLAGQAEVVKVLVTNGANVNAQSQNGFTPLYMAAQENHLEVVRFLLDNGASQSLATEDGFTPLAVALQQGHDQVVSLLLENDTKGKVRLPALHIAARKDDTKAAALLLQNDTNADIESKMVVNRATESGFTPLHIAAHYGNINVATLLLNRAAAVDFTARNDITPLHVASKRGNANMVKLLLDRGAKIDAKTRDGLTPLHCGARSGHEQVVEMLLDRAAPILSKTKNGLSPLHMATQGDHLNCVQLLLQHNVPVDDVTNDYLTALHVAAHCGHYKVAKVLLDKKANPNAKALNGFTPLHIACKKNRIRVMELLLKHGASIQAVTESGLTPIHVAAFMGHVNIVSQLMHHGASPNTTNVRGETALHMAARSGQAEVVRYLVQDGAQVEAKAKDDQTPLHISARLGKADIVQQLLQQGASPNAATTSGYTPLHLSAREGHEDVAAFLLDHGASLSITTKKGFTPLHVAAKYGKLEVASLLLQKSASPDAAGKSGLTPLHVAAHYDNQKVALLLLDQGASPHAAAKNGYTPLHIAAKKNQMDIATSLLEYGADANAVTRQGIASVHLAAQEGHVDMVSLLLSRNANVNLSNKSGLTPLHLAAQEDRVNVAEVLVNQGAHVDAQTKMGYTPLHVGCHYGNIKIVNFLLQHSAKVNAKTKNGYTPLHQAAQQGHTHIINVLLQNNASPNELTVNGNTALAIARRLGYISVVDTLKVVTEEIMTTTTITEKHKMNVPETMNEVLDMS
# [8] = biological target: T7, AnkB_repeats (24 ANK repeats of human 220 kDa ankyrin-B, residues 28–873) (human, UniProt Q01484 28-873); experiment: ITC; VP-ITC at 25°C; 50 mM Tris pH 7.5, 100 mM NaCl, 1 mM EDTA, 1 mM DTT; binding partner (AS, Nav1.2 ABD proteins, neurofascin ABD; 200–300 µM) in the syringe, ANK repeats (20–30 µM) in the cell; one-site binding model; conditions: both partners purified
# T7 construct: ankyrin-B (AnkB), human, 220 kDa isoform used as template, ANK repeats, residues 28-873; source: E. coli BL21 (DE3), purified
# T7 sequence (looked up): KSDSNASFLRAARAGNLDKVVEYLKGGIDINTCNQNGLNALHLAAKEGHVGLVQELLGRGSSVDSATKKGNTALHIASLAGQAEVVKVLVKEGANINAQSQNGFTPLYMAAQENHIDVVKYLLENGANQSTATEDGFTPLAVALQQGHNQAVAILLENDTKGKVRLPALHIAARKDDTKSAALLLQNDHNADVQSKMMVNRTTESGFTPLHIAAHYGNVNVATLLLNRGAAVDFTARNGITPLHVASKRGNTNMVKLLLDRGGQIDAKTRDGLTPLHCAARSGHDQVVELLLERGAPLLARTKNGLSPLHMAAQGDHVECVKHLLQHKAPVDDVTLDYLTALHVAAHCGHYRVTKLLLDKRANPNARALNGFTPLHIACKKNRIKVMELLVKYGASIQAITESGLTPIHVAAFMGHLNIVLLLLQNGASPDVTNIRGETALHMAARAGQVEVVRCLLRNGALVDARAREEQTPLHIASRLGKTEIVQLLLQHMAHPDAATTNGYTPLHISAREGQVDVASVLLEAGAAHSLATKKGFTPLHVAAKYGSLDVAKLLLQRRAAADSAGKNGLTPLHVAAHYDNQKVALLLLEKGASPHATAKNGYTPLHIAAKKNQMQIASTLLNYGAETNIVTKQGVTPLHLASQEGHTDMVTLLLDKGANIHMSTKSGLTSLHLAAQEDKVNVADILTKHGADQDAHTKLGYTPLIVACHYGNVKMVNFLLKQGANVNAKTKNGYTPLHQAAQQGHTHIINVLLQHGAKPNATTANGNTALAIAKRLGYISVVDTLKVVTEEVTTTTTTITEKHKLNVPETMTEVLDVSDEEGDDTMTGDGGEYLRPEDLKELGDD
# T1 sequence (Q02357 5-816): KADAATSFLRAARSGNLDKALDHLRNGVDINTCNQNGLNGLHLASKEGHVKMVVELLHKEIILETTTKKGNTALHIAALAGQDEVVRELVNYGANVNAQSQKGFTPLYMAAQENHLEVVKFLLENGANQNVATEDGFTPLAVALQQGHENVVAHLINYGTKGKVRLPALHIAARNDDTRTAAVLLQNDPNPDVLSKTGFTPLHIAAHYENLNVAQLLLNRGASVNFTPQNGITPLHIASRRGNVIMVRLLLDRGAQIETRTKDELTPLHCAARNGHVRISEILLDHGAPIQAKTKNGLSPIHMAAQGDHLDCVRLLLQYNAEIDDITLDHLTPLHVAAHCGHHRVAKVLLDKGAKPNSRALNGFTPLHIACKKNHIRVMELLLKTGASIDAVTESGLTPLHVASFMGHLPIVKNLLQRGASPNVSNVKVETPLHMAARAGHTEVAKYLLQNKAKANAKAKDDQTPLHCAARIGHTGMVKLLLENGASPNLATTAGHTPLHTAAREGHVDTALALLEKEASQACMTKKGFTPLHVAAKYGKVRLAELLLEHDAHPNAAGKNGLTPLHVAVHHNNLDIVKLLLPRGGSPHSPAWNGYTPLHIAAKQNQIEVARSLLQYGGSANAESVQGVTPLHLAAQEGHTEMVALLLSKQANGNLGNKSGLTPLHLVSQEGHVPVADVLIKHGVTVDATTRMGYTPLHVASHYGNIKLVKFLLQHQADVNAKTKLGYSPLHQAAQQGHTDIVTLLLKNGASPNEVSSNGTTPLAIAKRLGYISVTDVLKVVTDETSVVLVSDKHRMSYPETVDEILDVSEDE
# T3 sequence (O70511 38-855 F141Q/F174Q): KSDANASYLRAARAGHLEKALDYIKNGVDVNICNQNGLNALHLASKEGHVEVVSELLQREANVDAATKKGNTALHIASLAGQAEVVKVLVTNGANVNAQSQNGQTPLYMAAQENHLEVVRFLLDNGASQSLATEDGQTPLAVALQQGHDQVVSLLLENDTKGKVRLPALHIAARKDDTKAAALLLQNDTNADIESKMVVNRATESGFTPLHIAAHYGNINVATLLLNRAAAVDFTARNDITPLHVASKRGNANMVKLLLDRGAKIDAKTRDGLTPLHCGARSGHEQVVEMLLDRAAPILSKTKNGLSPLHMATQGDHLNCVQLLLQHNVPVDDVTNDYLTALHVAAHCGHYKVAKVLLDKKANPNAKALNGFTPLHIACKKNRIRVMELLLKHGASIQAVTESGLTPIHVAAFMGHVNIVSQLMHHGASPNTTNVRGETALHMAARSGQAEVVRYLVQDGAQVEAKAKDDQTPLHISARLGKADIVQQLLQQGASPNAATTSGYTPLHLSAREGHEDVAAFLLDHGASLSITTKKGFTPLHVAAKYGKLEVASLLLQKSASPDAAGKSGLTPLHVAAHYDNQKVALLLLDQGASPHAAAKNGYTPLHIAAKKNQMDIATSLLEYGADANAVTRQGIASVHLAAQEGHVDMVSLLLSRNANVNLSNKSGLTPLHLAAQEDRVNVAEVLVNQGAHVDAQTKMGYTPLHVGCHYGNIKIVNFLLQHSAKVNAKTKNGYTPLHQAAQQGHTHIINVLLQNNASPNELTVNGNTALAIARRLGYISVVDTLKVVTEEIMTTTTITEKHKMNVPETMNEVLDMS
# T4 sequence (O70511 38-855 I277Q/L310Q): as the sequence (O70511 38-855 F141Q/F174Q) above, with Q104F, Q137F, I240Q, L273Q counted along it
# T5 sequence (O70511 38-855 L376Q/F409Q/L442Q): as the sequence (O70511 38-855 F141Q/F174Q) above, with Q104F, Q137F, L339Q, F372Q, L405Q counted along it
molecule,measurement,setting,value
CADQYWNEVAVIDAIPLAATEHDTMLEMSDMQVWSAGLTPSLVTAEDS [AnkR_AS],Kd,[1],360 ± 20 nM
SDDSLVDYGEGGEGQFNEDGSFIGQYTV [Nfasc_ABD],ANK repeat sites used for binding,[2],sites 2 and 3
same,effect of site 1 mutations on binding,[3],no impact
same,effect of site 2 mutations on binding,[4],significantly weakened
same,effect of site 3 mutations on binding,[5],weakened
same,complex formation with AS-AnkG_repeats fusion protein,[6],No complex peaks formed
B1,Kd,[7],460 nM
same,Kd,[8],400 nM
